{"source": "patent US11529319B2", "about": "“Methods and compositions for treating neurological conditions” (priority 2017, dated 2022)", "key": {"Mef2c-het mice": {"tested_on": "Mef2c-het mice", "assay": "Immunohistochemistry and stereological cell counting in hippocampus after chronic treatment", "type": "in vivo, mouse", "conditions": "optical dissector", "excerpt": "Mef2c heterozygous knockout (Mef2c-het) mice were created by crossing mice carrying the conventional exon 2-deleted allele of Mef2c (Mef2c^Δ2) with their WT littermates. All procedures for maintaining and using these mice were approved by the Institutional Animal Care and Use Committee (IACUC) at the Sanford Burnham Prebys Medical Discovery Institute. In this study, only male mice were used for the behavioral assays to insure uniformity (either with or without drug treatment). Chronic treatment with memantine, NitroSynapsin (both at 4.6 μmol/kg body weight) or vehicle (PBS) was administered via i.p. injection, twice a day for at least 3 months, starting at ˜2.5 weeks of age. This age was chosen because mice are still juveniles and thus treatment could begin in human at an equivalent stage.\nMice were perfused with PBS buffer and then 2% paraformaldehyde in PBS (PFA).\nAfter perfusion, brains were removed and placed into 2% PFA overnight for post-fixation and then sunk in 30% sucrose in PBS prior to freezing. Cryostat sections were cut at a thickness of 15 μm. Sections were soaked in Antigen Unmasking Solution (Vector) and microwaved for 30 s, followed by permeabilization with 0.25% Triton X-100 in PBS for 15 min. Primary antibodies were incubated for 16 h at 4° C. and fluorescence-conjugated secondary antibodies for 2 h at 25° C. Numerous unstained cells in each field served as an internal control for staining specificity. Primary antibodies included: NeuN (mouse, EMD Millipore), activated caspase-3 (rabbit, Cell Signaling), VGLUT1 (guinea pig, SYSY), VGLUT2 (rabbit, SYSY), VGAT (mouse, SYSY), synaptophysin (mouse, Sigma), GFAP (mouse, Sigma), PCNA (mouse, Santa Cruz), DCX (goat, Santa Cruz). TUNEL assay was performed to assess apoptosis using the Roche In Situ Cell Death Detection Kit per vender's instruction. The number of cells positive or percent area occupied by NeuN, activated caspase-3, TUNEL, GFAP, PCNA, or DCX was counted in specific brain regions using an optical dissector, or estimated by quantitative confocal immunohistochemistry or optical density, as described previously."}, "[1]": {"tested_on": "p38 MAPK/MAPKAPK2/TSC2/mTORC1/S6K1 cascade", "assay": "Western blots of eNMDAR-triggered signaling", "type": "cell-based", "conditions": "10 μM", "excerpt": "This experiment was replicated 4 times with similar results and quantified in FIG. 20C."}, "Tsc2+/- mice [2]": {"tested_on": "Tsc2+/- mice", "assay": "Quantitative confocal immunohistochemistry of synaptophysin (SY38) in hippocampus", "type": "in vivo, mouse", "conditions": "i.p. loading 92 μmol/kg then 4.6 μmol/kg twice daily, two and a half days", "excerpt": "To determine the effects of […] antagonists on the brain histology of Tsc2^+/- mice, quantitative confocal immunohistochemistry was used to analyze coronal brain slices from 3-month-old wild-type (WT) and Tsc2^+/- mice that had been treated for two and a half days with vehicle, memantine or NitroSynapsin. Tsc2+/- mice on the C57Bl/6J background received via the intraperitoneal route either vehicle or a loading dose of 92 μmol/kg of memantine or NitroSynapsin, followed by 4.6 μmol/kg of drug twice daily for two-and-a-half-days, with the last dose 3 hours prior to the behavioral training session (for a total of five drug injections). This dosing regimen yields an effective concentration of drug at NMDARs in the brain of 1-10 μM."}, "Tsc2+/- mice [3]": {"tested_on": "Tsc2+/- mice", "assay": "Fear conditioning test", "type": "in vivo, mouse", "conditions": "two-and-a-half-day treatment, last dose 3 hours before training", "excerpt": "To determine the effects of eNMDAR antagonists on the brain histology of Tsc2^+/− mice, quantitative confocal immunohistochemistry was used to analyze coronal brain slices from 3-month-old wild-type (WT) and Tsc2^+/− mice that had been treated for two and a half days with vehicle, memantine or NitroSynapsin. Tsc2+/− mice on the C57Bl/6J background received via the intraperitoneal route either vehicle or a loading dose of 92 μmol/kg of memantine or NitroSynapsin, followed by 4.6 μmol/kg of drug twice daily for two-and-a-half-days, with the last dose 3 hours prior to the behavioral training session (for a total of five drug injections). This dosing regimen yields an effective concentration of drug at NMDARs in the brain of 1-10 μM.\nFear conditioning tests were performed on three-month-old Tsc2^+/+ and Tsc2^+/− mice to explore the effects of eNMDAR antagonists on anxiety, and learning and memory deficits in Tsc2^+/− mice. Vehicle, memantine or NitroSynapsin were administered for two and a half days, with the last dose of drug occurring 3-hours prior to the first training session. […] Freezing time of three-month-old WT and Tsc2^+/− transgenic mice treated with vehicle, memantine or NitroSynapsin in fear-conditioning trials. […] Values are mean+s.e.m. (n=7-12 mice per group). […]"}, "[4]": {"conditions": "Fung and Hardan 2015; cited from earlier work"}}, "data": [{"smiles": "CC12CC3CC(C)(C1)CC(N)(C3)C2", "note": "[memantine, reference compound]", "values": [{"measurement": "total number of NeuN+ cells in hippocampus", "setting": "Mef2c-het mice", "result": "but not memantine (M), was significantly greater than in vehicle (V)-treated mice"}, {"measurement": "phosphorylation/activation of the p38 MAPK/MAPKAPK2/TSC2/mTORC1/S6K1 cascade on eNMDAR stimulation", "setting": "[1]", "result": "reduced this signaling"}, {"measurement": "synaptophysin (SY38) staining in hippocampus (% area)", "setting": "Tsc2+/- mice [2]", "result": "not statistically significant"}, {"measurement": "context discrimination (freezing time, training vs novel context)", "setting": "Tsc2+/- mice [3]", "result": "failed to mitigate this deficit"}, {"measurement": "outcome in human clinical trials for ASD/IDD", "setting": "[4]", "result": "failed in human clinical trials"}]}]}
